The values that follow come from paper PMC12606464, “Investigating NFE2L1 activators for targeted protein aggregate clearance: a follow-up study” (RSC Medicinal Chemistry, 2025).

Read-outs that look alike come from different tables or passages of the source.

The subject of assay [1] is NFE2L1/TCF11/NRF1, SQSTM1/p62, LC3, NQO1 and HSPA1A/HSP70-1 protein levels. As to the kind of experiment: Immunoblot analysis in HEK293 cells. It counts as cell-based, human. The conditions noted are these: for LC3-I protein level, Treatment geometric mean / LC3-II protein level, Treatment geometric mean / HSPA1A protein level, Treatment geometric mean / LC3-total protein level, Treatment geometric mean / NFE2L1 protein level, Treatment geometric mean / NQO1 protein level, Treatment geometric mean / SQSTM1 protein level, Treatment geometric mean: immunoblot quantification; for LC3-I protein level, Treatment geometric mean / LC3-II protein level, Treatment geometric mean / HSPA1A protein level, Treatment geometric mean / LC3-total protein level, Treatment geometric mean / NFE2L1 protein level, Treatment geometric mean / NQO1 protein level, Treatment geometric mean / SQSTM1 protein level, Treatment geometric mean / HSPA1A protein level, geometric mean of ratios / LC3-II protein level, geometric mean of ratios / LC3-total protein level, geometric mean of ratios / NFE2L1 protein level, geometric mean of ratios / NQO1 protein level, geometric mean of ratios / SQSTM1 protein level, geometric mean of ratios: Fig. 2B; for LC3-I protein level, Treatment geometric mean: control geometric mean = 0.24; for LC3-II protein level, Treatment geometric mean: control geometric mean = 0.73; for HSPA1A protein level, Treatment geometric mean / LC3-total protein level, Treatment geometric mean / NFE2L1 protein level, Treatment geometric mean / NQO1 protein level, Treatment geometric mean / SQSTM1 protein level, Treatment geometric mean: control geometric mean = 1; for HSPA1A protein level, geometric mean of ratios / LC3-II protein level, geometric mean of ratios / LC3-total protein level, geometric mean of ratios / NFE2L1 protein level, geometric mean of ratios / NQO1 protein level, geometric mean of ratios / SQSTM1 protein level, geometric mean of ratios: ratio paired t test, treatment vs control. As to the method:
Fig. 2 (A) qPCRs of HEK293 cells treated with RUN compounds (7.5 μM) for 16 hours. The extracted RNA was reverse transcribed into cDNA and utilized for RT-qPCR (primers are listed in the SI, Table S1); the mRNA levels of RPLP0 were used for normalization. The experiment was performed in three biological replicates (n = 3). (B) Immunoblot analysis of proteins NFE2L1/TCF11/NRF1, SQSTM1/p62, LC3, NQO1 and HSPA1A/HSP70-1 in HEK293 cells after 16 h treatment with 7.5 μM RUN compounds. The protein levels were quantified by measuring the integrated fluorescence of the corresponding protein bands and normalized to the β-actin load. The full-length (F) and cleaved (C) forms of NFE2L1 were analyzed together. The experiment was performed in four biological replicates (n = 4) except for NFE2L1 (n = 3). (A and B) Results of RUN compounds were compared to the DMSO control using ratio paired t-tests corrected for multiple comparisons with Holm–Šídák's method (α = 0.05). *p < 0.05, **p < 0.01. Detailed results of the analysis are shown in SI Tables S5 and S6.
To confirm NFE2L1-controlled gene expression at the protein level, western blot analysis was performed. HEK293 cells were treated with selected RUN compounds for 16 hours, after which the protein levels were analyzed. […] Similar observations were made with SQSTM1 and LC3. As mentioned earlier, SQSTM1 directly binds to the LC3 region to facilitate the delivery of proteins for autophagic clearance.[62,64,65] Within cells, LC3 undergoes cleavage to form its cytosolic version, LC3-I, which is further converted into its membrane-bound form, LC3-II, which is anchored in autophagosomal membranes.[60,66] Consequently, both SQSTM1 and LC3 are widely regarded as markers of autophagy.[65] […] The increase in the LC3-II form indicates active autophagic processes. […]
HEK293 cells were treated with 7.5 µM RUN compounds for 16 h, then harvested and resuspended in lysis buffer [50 mM HEPES (pH 7.5), 5 mM EDTA, 150 mM NaCl, 2 mM ATP, and 1% Triton]. Cell lysates were subsequently centrifuged at 15,000 rpm and 4°C for 15 minutes, and then a protein concentration was determined using the Pierce BCA Protein Assay Kit (Thermo Fisher Scientific). Cell lysates were boiled for 5 min at 95 °C in a 6xSDS sample buffer [350 mM Tris-HCl (pH 6.8), 350 mM SDS, 30% (v/v) glycerol, 4% β-mercaptoethanol, 180 µM bromophenol blue]. Prepared samples (15 µg of proteins) were separated by SDS-PAGE (10, 12, or 16% Bis-Tris gels; 50 V for 5 min, then 200 V) and transferred onto a 0.45 µm nitrocellulose membrane (Bio-Rad). For LC3 level analysis, the 0.2 µm nitrocellulose membrane (Bio-Rad) was used. Membranes were blocked in Intercept® (TBS) Blocking Buffer (LI-COR Biosciences) for 1 h at room temperature and then incubated with primary antibodies in Intercept® (TBS) Blocking Buffer with 0.1% Tween-20 overnight at 4°C. Used primary antibodies: anti-NFE2L1/TCF11/SKN1/NRF1 monoclonal antibody (Cell Signalling; #8052; anti-NQO1 polyclonal antibody (Sigma-Aldrich; # HPA007308; 1:5.000), anti-LC3 antibody […]
(Sigma-Aldrich; #L8918), anti-p62/SQSTM antibody (Sigma-Aldrich; #P0067), anti-β-actin monoclonal antibody (Sigma-Aldrich; #A5441; 1:10.000). The resulting membranes were washed and incubated with near-infrared fluorophore-conjugated goat anti-mouse IRDye […]
COR Biosciences; #926-32211; 1:15.000) for 1 h at room temperature. Membranes were imaged using Odyssey® M NIR Imaging System (LI-COR Biosciences) and quantified using Image Studio software v. 6.0 (LI-COR Biosciences). The protein levels were quantified by measuring the integrated fluorescence of the corresponding protein bands and normalized to the β-actin loading control. Changes in protein levels after treatment with RUN compounds were analyzed using paired t-tests with correction for multiple comparisons using the Holm-Šídák method (α = 0.05) in GraphPad Prism (v 10.6.1).
2.7 Proteasome activity assay […]

The test system of a further assay is SNCA-EGFP. As to the kind of experiment: SNCA-EGFP degradation in SH-SY5Y cells. The format is cell-based, human. As to the method:
This reporter is prone to aggregation because of its slow protein turnover. To assess compound efficacy, we measured the fluorescence signal of GFP-tagged synuclein within aggregates.
The GFP fluorescence signal was then normalized to that of the DMSO control and the cell number. The experiment was performed in at least five biological replicates. Statistical analysis was performed using paired t-tests with Holm–Šídák correction for multiple comparisons (α = […]
SH-SY5Y cells stably expressing SNCA-EGFP were seeded on a plate and allowed to […]
tadalafil (5 µM), or RUN compounds at a concentration of 1 µM or treated with an equivalent volume of DMSO dissolved in buffer as a vehicle control. The treatment was performed for 16 hours and then fluorescence was measured. The GFP signal intensity was normalized to both the DMSO control and the cell count.

The mark [2] stands for this setting: SH-SY5Y, SNCA-EGFP degron, Figure S7.
[3] abbreviates: HEK293, 7.5 μM, 16 h, versus DMSO.

Consider `COc1ccc(/C=C2\CC(N)C/C(=C\c3ccc(OC)c(OC)c3)C2=O)cc1OC` (centres unmarked) [RUN-81], for which, in assay [1], the “LC3-I protein level, Treatment geometric mean” value (“LC3-I protein level” for short) was found to be 0.29; the “LC3-II protein level, Treatment geometric mean” value was 1.57; the “HSPA1A protein level, Treatment geometric mean” value is reported as 3.49; the “LC3-total protein level, Treatment geometric mean” value worked out at 1.88. Further, in assay [1], the “NFE2L1 protein level, Treatment geometric mean” value was 6.78; the “NQO1 protein level, Treatment geometric mean” value was found to be 3.12; the “SQSTM1 protein level, Treatment geometric mean” value is listed as 3.55; the “HSPA1A protein level, geometric mean of ratios” value (“HSPA1A protein level … of ratios” below) was 3.49. In assay [1], the “LC3-II protein level, geometric mean of ratios” value (“LC3-II protein level … of ratios” below) stood at 2.14; the “LC3-total protein level, geometric mean of ratios” value was determined as 1.88; the “NFE2L1 protein level, geometric mean of ratios” value (“NFE2L1 protein level … of ratios” below) was found to be 6.78; the “NQO1 protein level, geometric mean of ratios” value (“NQO1 protein level … of ratios” below) came out at 3.12. Also, in assay [1], the “SQSTM1 protein level, geometric mean of ratios” value was found to be 3.55. In addition, in the assay on SNCA-EGFP (setting [2]), the “Geometric mean of ratios (paired t tests, Treatment vs Control = 100)” value is recorded as -11.53 and the “Geometric mean, Treatment (Control = 100)” value (from here on “Geometric mean, Treatment”) came out at 88.47.
As to `COc1ccc(/C=C2\CC(NC(=O)C3CCCC3)C/C(=C\c3ccc(OC)c(OC)c3)C2=O)cc1OC` (centres unmarked) [RUN-89], the “Total LC3 protein level” value in assay [1] (setting [3]) is given as “significantly elevate”. Besides, in assay [1], the “LC3-I protein level” value was 0.26; the “LC3-II protein level, Treatment geometric mean” value came out at 1.88; the “HSPA1A protein level, Treatment geometric mean” value came to 4.38; the “LC3-total protein level, Treatment geometric mean” value worked out at 2.16. In addition, in assay [1], the “NFE2L1 protein level, Treatment geometric mean” value is given as 13.41; the “NQO1 protein level, Treatment geometric mean” value is given as 3.31; the “SQSTM1 protein level, Treatment geometric mean” value was 4.74; the “HSPA1A protein level … of ratios” value is listed as 4.38. Moreover, in assay [1], the “LC3-II protein level … of ratios” value stood at 2.56; the “LC3-total protein level, geometric mean of ratios” value is on record as 2.16; the “NFE2L1 protein level … of ratios” value is 13.41; the “NQO1 protein level … of ratios” value was 3.31. Also, the “Geometric mean of ratios (paired t tests, Treatment vs Control = 100)” value in the assay with SNCA-EGFP is -11.61. In addition, in the assay on SNCA-EGFP (setting [2]), the “Geometric mean, Treatment” value was determined as 88.39.
With `COc1ccc(/C=C2\CC(NC(=O)c3ccccn3)C/C(=C\c3ccc(OC)c(OC)c3)C2=O)cc1OC` (centres unmarked) [RUN-94], in assay [1] (setting [3]), the NQO1 protein level result is recorded as “notably boosting” and the “Total LC3 protein level” value was “significantly elevate”. For the same compound, in assay [1], the “LC3-I protein level” value is listed as 0.38; the “LC3-II protein level, Treatment geometric mean” value came out at 1.72; the “HSPA1A protein level, Treatment geometric mean” value is given as 3.12; the “LC3-total protein level, Treatment geometric mean” value was found to be 2.14. Besides, in assay [1], the “NFE2L1 protein level, Treatment geometric mean” value was 14.37; the “NQO1 protein level, Treatment geometric mean” value is recorded as 4.16; the “SQSTM1 protein level, Treatment geometric mean” value is listed as 5.55; the “HSPA1A protein level … of ratios” value amounted to 3.12. Besides, in assay [1], the “LC3-II protein level … of ratios” value is reported as 2.35; the “LC3-total protein level, geometric mean of ratios” value was 2.14; the “NFE2L1 protein level … of ratios” value was 14.37; the “NQO1 protein level … of ratios” value is 4.16. Moreover, the “SQSTM1 protein level, geometric mean of ratios” value in assay [1] amounted to 5.55. Further, in the assay with SNCA-EGFP (setting [2]), the “Geometric mean of ratios (paired t tests, Treatment vs Control = 100)” value is on record as -7.67 and the “Geometric mean, Treatment” value amounted to 92.33.
